{"source": "patent US8252572B2", "about": "“Use of islet glucose-6-phosphatase related protein as a diagnostic tool and therapeutic target for autoimmune diabetes” (priority 2003, dated 2012)", "molecules": {"B1": {"name": "G6Pase: equivalent β-galactosidase fusion construct with liver glucose-6-phosphatase (protein, UniProt P35575 1-357, looked up)", "Glucose-6-phosphatase …": "MEEGMNVLHDFGIQSTHYLQVNYQDSQDWFILVSVIADLRNAFYVLFPIWFHLQEAVGIKLLWVAVIGDWLNLVFKWILFGQRPYWWVLDTDYYSNTSVPLIKQFPVTCETGPGSPSGHAMGTAGVYYVMVTSTLSIFQGKIKPTYRFRCLNVILWLGFWAVQLNVCLSRIYLAAHFPHQVVAGVLSGIAVAETFSHIHSIYNASLKKYFLITFFLFSFAIGFYLLLKGLGVDLLWTLEKAQRWCEQPEWVHIDTTPFASLLKNLGTLFGLGLALNSSMYRESCKGKLSKWLPFRLSSIVASLVLLHVFDSLKPPSQVELVFYVLSFCKSAVVPLASVSVIPYCLAQVLGQPHKKSL"}, "B2": {"name": "recombinant IGRP: recombinant islet glucose-6-phosphatase related protein generated as fusion protein with β-galactosidase in the pUEX vector (protein, UniProt Q9Z186 1-355, looked up)", "Glucose-6-phosphatase 2": "MDFLHRSGVLIIHHLQEDYRTYYGFLNFMSNVGDPRNIFSIYFPLWFQLNQNVGTKMIWVAVIGDWFNLIFKWILFGHRPYWWIQETEIYPNHSSPCLEQFPTTCETGPGSPSGHAMGSSCVWYVMVTAALSYTISRMEESSVTLHRLTWSFLWSVFWLIQISVCISRVFIATHFPHQVILGVIGGMLVAEAFEHTPGVHMASLSVYLKTNVFLFLFALGFYLLLRLFGIDLLWSVPIAKKWCANPDWIHIDSTPFAGLVRNLGVLFGLGFAINSEMFLRSCQGENGTKPSFRLLCALTSLTTMQLYRFIKIPTHAEPLFYLLSFCKSASIPLMVVALIPYCVHMLMRPGDKKTK"}, "B3": {"name": "UGRP: equivalent construct with ubiquitously expressed G6Pase related protein (protein, UniProt Q6NSQ9 1-346, looked up)", "Glucose-6-phosphatase 3": "MESTLSAGIIMAEALQNRLPGLENMWLWVTFLGDPKNLFQFCFPAAYYASRRLGISVLWITFIAEWLNLVFKWFLFGDRPFWWVHESGYSTQTPIQIHQFPSSCETGPGSPSGHCMITGAALWPVMTAISSQVASRSRSPWVRVIPGLAYCTFLLAVGLSRVFLLAHFPHQVLGGLIVGAALGWLMSPRVPMERELSFYGLTALALMLGASLMYWTLFTLGLDLSWSINLASKWCERPEWVHMDSRPFASLSRDSGSALGLGIALHTPCYAQIRRAHLGNGQKIACFVLAMGLLVFLEWLGYPPQISLFYIFNFLKYTLWPCLVLALVPWVVHTLSDQEAPPIRSS"}}, "key": {"NY8.3 CD8 T-cell clone": {"tested_on": "NY8.3 CD8 T-cell clone", "conditions": "cited from earlier work"}, "[1]": {"tested_on": "CD8 positive cells from the whole pancreas of NOD mice", "assay": "MHC class I tetramer binding to pancreatic mononuclear cells (FACS)", "format": "cell-based, NOD mouse", "excerpt": "Cells were isolated from collagenase digested mouse pancreas by gradient centrifugation and subject to 3 color FACS analysis using antibodies to CD45, CD8 and PE-streptavidin conjugated tetramers carrying peptides derived from IGRP. The gated (R1) population were 95% CD45 positive and composed of 12.5% CD8 cells.\nMHC class I tetramers were generated using the NIH tetramer facility. These were loaded with a series of peptides including the native mouse IGRP peptide (VYLKTNVFL (SEQ ID NO.: 6); peptide C, FIG. 4) corresponding to the NRP-V7 mimeotope (KYNKANVFL (SEQ ID NO.: 7)) that stimulates the NY8.3 CD8 T-cell clone. A procedure was developed for the isolation of mononuclear cells from the whole pancreas of NOD mice yielding approximately 0.5-1×10^6 CD45 positive cells (lymphocytes) per mouse (12-16 wk females) for tetramer binding assays (FIG. 4). The lymphocyte population contained 10-15% CD8 positive cells of which 8% bound the native peptide tetramer. These assays confirm the remarkable finding that a major proportion of the CD8 cells in the NOD pancreas target one specific IGRP epitope. The procedure developed here represents a technical advance on previous tetramer studies of activated NRP reactive T-cell in NOD mice which required up to 40 animals for a single experiment and amplification of islet-derived T-cells for 7-9 days in the presence of IL-2."}, "[2]": {"tested_on": "mixed lymphocyte preparations of pre-diabetic 12 week old female NOD mice", "assay": "T-cell proliferative responses to recombinant antigens (3H thymidine)", "format": "cell-based, NOD mouse", "conditions": "for T-cell proliferative response (in words): recombinant antigens as β-galactosidase fusion proteins, NOD lymphocytes", "method": "Lymphocytes prepared from pancreatic draining lymph nodes were mixed with splenocytes from the same animal and incubated for 3 days (500×10^3 cells) in Click's medium with […] NOD mouse serum 50 μM mercaptoethanol and the indicated recombinant antigens that were generated as fusion proteins with β-galactosidase in the pUEX vector. Cultures were pulsed for 16 h with ^3H thymidine prior to harvest.\nT-cell proliferative responses to recombinant IGRP (3-100 μg/ml) were observed from mixed lymphocyte preparations of pre-diabetic 12 week old female NOD mice (SImax=10)."}}, "data": [{"molecule": "KYNKANVFL (SEQ ID NO.: 7) (artificial Mus sp.) [NRP-V7, mimeotope that stimulates the NY8.3 CD8 T-cell clone]", "values": [{"measurement": "stimulation of T-cell clone (in words)", "setting": "NY8.3 CD8 T-cell clone", "result": "stimulates"}]}, {"molecule": "VYLKTNVFL (SEQ ID NO.: 6) (listed as Mus sp.) [peptide C, native mouse IGRP peptide, cognate peptide of the NY8.3 clone]", "values": [{"measurement": "proportion of CD8 positive cells that bound the tetramer", "setting": "[1]; K^d tetramer loaded with peptide, pancreatic lymphocytes of 12-16 wk female NOD mice", "result": 8, "unit": "%"}, {"measurement": "tetramer staining of pancreatic CD8 cells (in words)", "setting": "[1]; PE-streptavidin conjugated tetramers carrying peptides derived from IGRP, 3 color FACS, FIG. 4", "result": "significant proportion bound"}]}, {"molecule": "β-galactosidase: the fusion partner, used as control antigen [reference compound]", "values": [{"measurement": "T-cell proliferative response (in words)", "setting": "[2]", "result": "minimal response"}]}, {"molecule": "B1", "values": [{"measurement": "T-cell proliferative response (in words)", "setting": "[2]", "result": "minimal response"}]}, {"molecule": "B2", "values": [{"measurement": "T-cell proliferative response, SImax", "setting": "[2]; recombinant IGRP 3-100 μg/ml, β-galactosidase fusion protein, 3 days culture, 16 h 3H thymidine pulse", "result": 10}]}, {"molecule": "B3", "values": [{"measurement": "T-cell proliferative response (in words)", "setting": "[2]", "result": "minimal response"}]}]}
